In ChEMBL document CHEMBL4004849, “Tetrazolylmethyl quinolines: Design, docking studies, synthesis, anticancer and antifungal analyses” (2017):
Values after ≈ are worked out from the molar mass of the structure shown. Active and inactive are the calls of the source. No cut-off for these calls is given here.

What follows are compounds tested on HL-60(TB) (assay: Growth inhibition of human HL-60(TB) cells at 10^-5 M incubated for 48 hrs by sulforhodamine B assay relative to control). Details: not given.
Assay type: functional

Row | SMILES | growth inhibition (GI)
1 | Fc1ccc2nc(Cl)c(Cn3nnnc3CSc3ccccc3)cc2c1 | Active

These compounds were tested on K562 (assay: Growth inhibition of human K562 cells at 10^-5 M incubated for 48 hrs by sulforhodamine B assay relative to control). Details: not given.
Assay type: functional

Row | SMILES | growth inhibition (GI)
2 | Fc1ccc2nc(Cl)c(Cn3nnnc3CSc3ccccc3)cc2c1 | Active

The compounds below were run on MOLT-4 (assay: Growth inhibition of human MOLT4 cells at 10^-5 M incubated for 48 hrs by sulforhodamine B assay relative to control). Details: not given.
Assay type: functional

Row | SMILES | growth inhibition (GI)
3 | Fc1ccc2nc(Cl)c(Cn3nnnc3CSc3ccccc3)cc2c1 | Active

The compounds below were run on SR (assay: Growth inhibition of human SR cells at 10^-5 M incubated for 48 hrs by sulforhodamine B assay relative to control). Details: not given.
Assay type: functional

Row | SMILES | growth inhibition (GI)
4 | Fc1ccc2nc(Cl)c(Cn3nnnc3CSc3ccccc3)cc2c1 | Active

These compounds were tested on A549 (assay: Growth inhibition of human A549/ATCC cells at 10^-5 M incubated for 48 hrs by sulforhodamine B assay relative to control). Details: not given.
Assay type: functional

Row | SMILES | growth inhibition (GI)
5 | Fc1ccc2nc(Cl)c(Cn3nnnc3CSc3ccccc3)cc2c1 | Active

Each compound was assayed on EKVX (assay: Growth inhibition of human EKVX cells at 10^-5 M incubated for 48 hrs by sulforhodamine B assay relative to control). Details: not given.
Assay type: functional

Row | SMILES | growth inhibition (GI)
6 | Fc1ccc2nc(Cl)c(Cn3nnnc3CSc3ccccc3)cc2c1 | Active

The compounds below were run on NCI-H226 (assay: Growth inhibition of human NCI-H226 cells at 10^-5 M incubated for 48 hrs by sulforhodamine B assay relative to control). Details: not given.
Assay type: functional

Row | SMILES | growth inhibition (GI)
7 | Fc1ccc2nc(Cl)c(Cn3nnnc3CSc3ccccc3)cc2c1 | Active

Each compound was assayed on NCI-H23 (assay: Growth inhibition of human NCI-H23 cells at 10^-5 M incubated for 48 hrs by sulforhodamine B assay relative to control). Details: not given.
Assay type: functional

Row | SMILES | growth inhibition (GI)
8 | Fc1ccc2nc(Cl)c(Cn3nnnc3CSc3ccccc3)cc2c1 | Active

These compounds were tested on COLO 205 (assay: Growth inhibition of human COLO205 cells at 10^-5 M incubated for 48 hrs by sulforhodamine B assay relative to control). Details: not given.
Assay type: functional

Row | SMILES | growth inhibition (GI)
9 | Fc1ccc2nc(Cl)c(Cn3nnnc3CSc3ccccc3)cc2c1 | Active

The compounds below were run on HCC 2998 (assay: Growth inhibition of human HCC2998 cells at 10^-5 M incubated for 48 hrs by sulforhodamine B assay relative to control). Details: not given.
Assay type: functional

Row | SMILES | growth inhibition (GI)
10 | Fc1ccc2nc(Cl)c(Cn3nnnc3CSc3ccccc3)cc2c1 | Active

Each compound was assayed on HCT-15 (assay: Growth inhibition of human HCT15 cells at 10^-5 M incubated for 48 hrs by sulforhodamine B assay relative to control). Details: not given.
Assay type: functional

Row | SMILES | growth inhibition (GI)
11 | Fc1ccc2nc(Cl)c(Cn3nnnc3CSc3ccccc3)cc2c1 | Active

What follows are compounds tested on HT-29 (assay: Growth inhibition of human HT-29 cells at 10^-5 M incubated for 48 hrs by sulforhodamine B assay relative to control). Details: not given.
Assay type: functional

Row | SMILES | growth inhibition (GI)
12 | Fc1ccc2nc(Cl)c(Cn3nnnc3CSc3ccccc3)cc2c1 | Active

What follows are compounds tested on KM12 (assay: Growth inhibition of human KM12 cells at 10^-5 M incubated for 48 hrs by sulforhodamine B assay relative to control). Details: not given.
Assay type: functional

Row | SMILES | growth inhibition (GI)
13 | Fc1ccc2nc(Cl)c(Cn3nnnc3CSc3ccccc3)cc2c1 | Active

The compounds below were run on SW-620 (assay: Growth inhibition of human SW620 cells at 10^-5 M incubated for 48 hrs by sulforhodamine B assay relative to control). Details: not given.
Assay type: functional

Row | SMILES | growth inhibition (GI)
14 | Fc1ccc2nc(Cl)c(Cn3nnnc3CSc3ccccc3)cc2c1 | Active

What follows are compounds tested on SF-268 (assay: Growth inhibition of human SF268 cells at 10^-5 M incubated for 48 hrs by sulforhodamine B assay relative to control). Details: not given.
Assay type: functional

Row | SMILES | growth inhibition (GI)
15 | Fc1ccc2nc(Cl)c(Cn3nnnc3CSc3ccccc3)cc2c1 | Active

Each compound was assayed on SF-295 (assay: Growth inhibition of human SF295 cells at 10^-5 M incubated for 48 hrs by sulforhodamine B assay relative to control). Details: not given.
Assay type: functional

Row | SMILES | growth inhibition (GI)
16 | Fc1ccc2nc(Cl)c(Cn3nnnc3CSc3ccccc3)cc2c1 | Active

Each compound was assayed on SF-539 (assay: Growth inhibition of human SF539 cells at 10^-5 M incubated for 48 hrs by sulforhodamine B assay relative to control). Details: not given.
Assay type: functional

Row | SMILES | growth inhibition (GI)
17 | Fc1ccc2nc(Cl)c(Cn3nnnc3CSc3ccccc3)cc2c1 | Active

These compounds were tested on SNB-19 (assay: Growth inhibition of human SNB19 cells at 10^-5 M incubated for 48 hrs by sulforhodamine B assay relative to control). Details: not given.
Assay type: functional

Row | SMILES | growth inhibition (GI)
18 | Fc1ccc2nc(Cl)c(Cn3nnnc3CSc3ccccc3)cc2c1 | Active

These compounds were tested on SNB-75 (assay: Growth inhibition of human SNB75 cells at 10^-5 M incubated for 48 hrs by sulforhodamine B assay relative to control). Details: not given.
Assay type: functional

Row | SMILES | growth inhibition (GI)
19 | Fc1ccc2nc(Cl)c(Cn3nnnc3CSc3ccccc3)cc2c1 | Active

Each compound was assayed on U-251 (assay: Growth inhibition of human U251 cells at 10^-5 M incubated for 48 hrs by sulforhodamine B assay relative to control). Details: not given.
Assay type: functional

Row | SMILES | growth inhibition (GI)
20 | Fc1ccc2nc(Cl)c(Cn3nnnc3CSc3ccccc3)cc2c1 | Active

Each compound was assayed on LOX IMVI (assay: Growth inhibition of human LOXIMVI cells at 10^-5 M incubated for 48 hrs by sulforhodamine B assay relative to control). Details: not given.
Assay type: functional

Row | SMILES | growth inhibition (GI)
21 | Fc1ccc2nc(Cl)c(Cn3nnnc3CSc3ccccc3)cc2c1 | Active

Each compound was assayed on M14 (assay: Growth inhibition of human M14 cells at 10^-5 M incubated for 48 hrs by sulforhodamine B assay relative to control). Details: not given.
Assay type: functional

Row | SMILES | growth inhibition (GI)
22 | Fc1ccc2nc(Cl)c(Cn3nnnc3CSc3ccccc3)cc2c1 | Active

What follows are compounds tested on SK-MEL-28 (assay: Growth inhibition of human SK-MEL-28 cells at 10^-5 M incubated for 48 hrs by sulforhodamine B assay relative to control). Details: not given.
Assay type: functional

Row | SMILES | growth inhibition (GI)
23 | Fc1ccc2nc(Cl)c(Cn3nnnc3CSc3ccccc3)cc2c1 | Active

Each compound was assayed on SK-MEL-5 (assay: Growth inhibition of human SK-MEL-5 cells at 10^-5 M incubated for 48 hrs by sulforhodamine B assay relative to control). Details: not given.
Assay type: functional

Row | SMILES | growth inhibition (GI)
24 | Fc1ccc2nc(Cl)c(Cn3nnnc3CSc3ccccc3)cc2c1 | Active

Each compound was assayed on UACC-257 (assay: Growth inhibition of human UACC257 cells at 10^-5 M incubated for 48 hrs by sulforhodamine B assay relative to control). Details: not given.
Assay type: functional

Row | SMILES | growth inhibition (GI)
25 | Fc1ccc2nc(Cl)c(Cn3nnnc3CSc3ccccc3)cc2c1 | Active

These compounds were tested on UACC-62 (assay: Growth inhibition of human UACC62 cells at 10^-5 M incubated for 48 hrs by sulforhodamine B assay relative to control). Details: not given.
Assay type: functional

Row | SMILES | growth inhibition (GI)
26 | Fc1ccc2nc(Cl)c(Cn3nnnc3CSc3ccccc3)cc2c1 | Active

Each compound was assayed on OVCAR-3 (assay: Growth inhibition of human OVCAR3 cells at 10^-5 M incubated for 48 hrs by sulforhodamine B assay relative to control). Details: not given.
Assay type: functional

Row | SMILES | growth inhibition (GI)
27 | Fc1ccc2nc(Cl)c(Cn3nnnc3CSc3ccccc3)cc2c1 | Active

Each compound was assayed on OVCAR-4 (assay: Growth inhibition of human OVCAR4 cells at 10^-5 M incubated for 48 hrs by sulforhodamine B assay relative to control). Details: not given.
Assay type: functional

Row | SMILES | growth inhibition (GI)
28 | Fc1ccc2nc(Cl)c(Cn3nnnc3CSc3ccccc3)cc2c1 | Active

What follows are compounds tested on OVCAR-5 (assay: Growth inhibition of human OVCAR5 cells at 10^-5 M incubated for 48 hrs by sulforhodamine B assay relative to control). Details: not given.
Assay type: functional

Row | SMILES | growth inhibition (GI)
29 | Fc1ccc2nc(Cl)c(Cn3nnnc3CSc3ccccc3)cc2c1 | Active

Each compound was assayed on OVCAR-8 (assay: Growth inhibition of human OVCAR8 cells at 10^-5 M incubated for 48 hrs by sulforhodamine B assay relative to control). Details: not given.
Assay type: functional

Row | SMILES | growth inhibition (GI)
30 | Fc1ccc2nc(Cl)c(Cn3nnnc3CSc3ccccc3)cc2c1 | Active

The compounds below were run on SK-OV-3 (assay: Growth inhibition of human SKOV3 cells at 10^-5 M incubated for 48 hrs by sulforhodamine B assay relative to control). Details: not given.
Assay type: functional

Row | SMILES | growth inhibition (GI)
31 | Fc1ccc2nc(Cl)c(Cn3nnnc3CSc3ccccc3)cc2c1 | Active

Each compound was assayed on 786-0 (assay: Growth inhibition of human 786-0 cells at 10^-5 M incubated for 48 hrs by sulforhodamine B assay relative to control). Details: not given.
Assay type: functional

Row | SMILES | growth inhibition (GI)
32 | Fc1ccc2nc(Cl)c(Cn3nnnc3CSc3ccccc3)cc2c1 | Active

Each compound was assayed on ACHN (assay: Growth inhibition of human ACHN cells at 10^-5 M incubated for 48 hrs by sulforhodamine B assay relative to control). Details: not given.
Assay type: functional

Row | SMILES | growth inhibition (GI)
33 | Fc1ccc2nc(Cl)c(Cn3nnnc3CSc3ccccc3)cc2c1 | Active

These compounds were tested on RXF 393 (assay: Growth inhibition of human RXF393 cells at 10^-5 M incubated for 48 hrs by sulforhodamine B assay relative to control). Details: not given.
Assay type: functional

Row | SMILES | growth inhibition (GI)
34 | Fc1ccc2nc(Cl)c(Cn3nnnc3CSc3ccccc3)cc2c1 | Active

These compounds were tested on SN12C (assay: Growth inhibition of human SN12C cells at 10^-5 M incubated for 48 hrs by sulforhodamine B assay relative to control). Details: not given.
Assay type: functional

Row | SMILES | growth inhibition (GI)
35 | Fc1ccc2nc(Cl)c(Cn3nnnc3CSc3ccccc3)cc2c1 | Active

What follows are compounds tested on TK-10 (assay: Growth inhibition of human TK10 cells at 10^-5 M incubated for 48 hrs by sulforhodamine B assay relative to control). Details: not given.
Assay type: functional

Row | SMILES | growth inhibition (GI)
36 | Fc1ccc2nc(Cl)c(Cn3nnnc3CSc3ccccc3)cc2c1 | Active

What follows are compounds tested on UO-31 (assay: Growth inhibition of human UO31 cells at 10^-5 M incubated for 48 hrs by sulforhodamine B assay relative to control). Details: not given.
Assay type: functional

Row | SMILES | growth inhibition (GI)
37 | Fc1ccc2nc(Cl)c(Cn3nnnc3CSc3ccccc3)cc2c1 | Active

Each compound was assayed on MCF7 (assay: Growth inhibition of human MCF7 cells at 10^-5 M incubated for 48 hrs by sulforhodamine B assay relative to control). Details: not given.
Assay type: functional

Row | SMILES | growth inhibition (GI)
38 | Fc1ccc2nc(Cl)c(Cn3nnnc3CSc3ccccc3)cc2c1 | Active

The compounds below were run on MDA-MB-231 (assay: Growth inhibition of human MDA-MB-231/ATCC cells at 10^-5 M incubated for 48 hrs by sulforhodamine B assay relative to control). Details: not given.
Assay type: functional

Row | SMILES | growth inhibition (GI)
39 | Fc1ccc2nc(Cl)c(Cn3nnnc3CSc3ccccc3)cc2c1 | Active

These compounds were tested on Hs-578T (assay: Growth inhibition of human Hs 578T cells at 10^-5 M incubated for 48 hrs by sulforhodamine B assay relative to control). Details: not given.
Assay type: functional

Row | SMILES | growth inhibition (GI)
40 | Fc1ccc2nc(Cl)c(Cn3nnnc3CSc3ccccc3)cc2c1 | Active

Each compound was assayed on BT-549 (assay: Growth inhibition of human BT549 cells at 10^-5 M incubated for 48 hrs by sulforhodamine B assay relative to control). Details: not given.
Assay type: functional

Row | SMILES | growth inhibition (GI)
41 | Fc1ccc2nc(Cl)c(Cn3nnnc3CSc3ccccc3)cc2c1 | Active

What follows are compounds tested on T47D (assay: Growth inhibition of human T47D cells at 10^-5 M incubated for 48 hrs by sulforhodamine B assay relative to control). Details: not given.
Assay type: functional

Row | SMILES | growth inhibition (GI)
42 | Fc1ccc2nc(Cl)c(Cn3nnnc3CSc3ccccc3)cc2c1 | Active

Each compound was assayed on Candida albicans (assay: Antifungal activity against Candida albicans after 24 hrs by serial dilution method). Details: not given.
Assay type: functional

Row | SMILES | MIC
43 | Fc1ccc2nc(Cl)c(Cn3nnnc3CSc3ccccc3)cc2c1 | 50 mg/L (≈ 130 µM)

The compounds below were run on Aspergillus fumigatus (assay: Antifungal activity against Aspergillus fumigatus at 100 ug/ml by disc diffusion method). Details: read-out: IZ.
Assay type: functional

Row | SMILES | zone of inhibition at 100 µg/mL
44 | Fc1ccc2nc(Cl)c(Cn3nnnc3CSc3ccccc3)cc2c1 | 14 mm

These compounds were tested on Aspergillus fumigatus (assay: Antifungal activity against Aspergillus fumigatus after 24 hrs by serial dilution method). Details: not given.
Assay type: functional

Row | SMILES | MIC
45 | Fc1ccc2nc(Cl)c(Cn3nnnc3CSc3ccccc3)cc2c1 | 2.5 mg/L (≈ 6.48 µM)
